Reference: ChEMBL document CHEMBL4842322, “A naphthalimide-polyamine conjugate preferentially accumulates in hepatic carcinoma metastases as a lysosome-targeted antimetastatic agent” (Eur J Med Chem, 2021)

Assays:
Assay type in all cases: functional, cell-based
HepG2 = test: Cytotoxicity against human HepG2 cells assessed as inhibition of cell growth incubated for 48 hrs by MTT assay; conditions: HepG2, 48 h
Huh-7 = test: Cytotoxicity against human Huh-7 cells assessed as inhibition of cell growth incubated for 48 hrs by MTT assay; conditions: Huh-7, 48 h
MDA-MB-231 = test: Cytotoxicity against human MDA-MB-231 cells assessed as inhibition of cell growth incubated for 48 hrs by MTT assay; conditions: MDA-MB-231, 48 h
MCF7 = test: Cytotoxicity against human MCF7 cells assessed as inhibition of cell growth incubated for 48 hrs by MTT assay; conditions: MCF7, 48 h
A549 [1] = test: Cytotoxicity against human A549 cells assessed as inhibition of cell growth incubated for 48 hrs by MTT assay; conditions: A549, 48 h
A549 [2] = test: Cytotoxicity against cisplatin-resistant human A549 cells assessed as inhibition of cell growth incubated for 48 hrs by MTT assay; conditions: A549, 48 h

Row | SMILES | IC50 (HepG2) [µM] | IC50 (Huh-7) [µM] | IC50 (MDA-MB-231) [µM] | IC50 (MCF7) [µM] | IC50 (A549 [1]) [µM] | IC50 (A549 [2]) [µM]
1 | NCCCCNCCCCN1C(=O)c2cccc3c(NC(=O)CN)ccc(c23)C1=O | > 30 | 22.9 | > 30 | > 30 | > 30 | > 30
2 | CCCNCCCNCCCN1C(=O)c2cccc3cc(NC(=O)CN)cc(c23)C1=O | > 30 | 7.54 | > 30 | > 30 | > 30 | > 30
3 | CCCNCCCNCCCNCCCN1C(=O)c2cccc3c(NC(=O)CN)ccc(c23)C1=O | > 30 | 5.39 | > 30 | > 30 | > 30 | > 30
4 | CCCNCCCN1C(=O)c2cccc3cc(NC(=O)CN)cc(c23)C1=O | > 30 | 10.1 | > 30 | > 30 | > 30 | > 30
5 | CCCNCCCNCCCNCCCN1C(=O)c2cccc3cc(NC(=O)CN)cc(c23)C1=O | > 30 | 14.9 | > 30 | > 30 | > 30 | > 30
